According to paper PMC9406419, “OATD-02 Validates the Benefits of Pharmacological Inhibition of Arginase 1 and 2 in Cancer” (Cancers, 2022):
Read-outs that look alike come from different tables or passages of the source.

Experiments:
CT26 tumours = experiment: Syngeneic CT26 colorectal carcinoma model, monotherapy, with plasma/tumour bioanalytics; format: in vivo, mouse; conditions: for final TGI (tumour growth inhibition): CT26 in BALB/c mice, 100 mg/kg, PO, BID from day 1 post-inoculation
Experimental: CT26 and K562 in vivo experiments were conducted at Molecure SA. All experimental procedures were approved by the 1st Local Ethics Committee in Warsaw (Poland). For the syngeneic CT26 model, 7–8-week old BALB/c females (n = 9–18 per group, BALB/cAnNCrl, Charles River Laboratories) were injected subcutaneously in the right flank with 5 × 10^5 CT26 cells. […] Anti-PD-L1 antibody (InVivoPlus anti-mouse PD-L1, clone 10F.9G2, BioXCell, lot 615416D1) was injected intraperitoneally at 2.5 mg/kg on days: 8, 10, 12, 14 and 16 post tumour cells inoculation. Control groups received vehicle (saline) or isotype antibody (InVivoPlus rat IgG2b, anti-KLH, BioXCell, lot 629816D1). For the xenograft K562 model, 7–8 week-old athymic nude mice (n = 8–11 per group, Crl:NU(NCr)-Foxn1^nu, Charles River Laboratories) or NK cell-deficient Fox Chase SCID Beige mice (n = 10–12 per group, CB17.Cg-Prkdc^scidLyst^bg-J/Crl, Charles River Laboratories) were injected subcutaneously in the right flank with 1 × 10^7 K562 cells. […] Tumour volume measured by a digital calliper (width × length × depth × π/6) was recorded three times per week. Animals were euthanized when tumours were necrotized or volume exceeded 2000 mm^3. Renca in vivo efficacy study was performed at Crown Biosciences Inc. (Taicang, China). All experimental procedures on animals were approved by the Institutional Animal Care and Use Committee (IACUC) and conducted in accordance with the regulations of the Association for Assessment and Accreditation of Laboratory Animal Care (AAALAC). For the syngeneic Renca model, 6–7 week-old BALB/c females (n = 12 per group, Shanghai Lingchang Biotechnology, Shanghai, China) were injected subcutaneously in the right flank with 1 × 10^6 Renca cells. Tumour volumes (length × width^2 × 0.5) were measured twice per week. OATD-02 was dosed twice per day at 75 mg/kg by oral gavage. A dosing holiday was given to individuals with bodyweight loss exceeding 15% of the initial body weight and the treatment was resumed when the bodyweight loss recovered to less than 10%. Due to the cachexic nature of the Renca model, all animals were supplemented with DietGel to help maintain their body weight.
The concentrations of OATD-02, the reference ARGi or L-arginine were determined in plasma samples or tumour homogenates using liquid chromatography coupled with tandem mass spectrometry (LC-MS/MS). Sample preparation was based on protein precipitation using acetonitrile. The resulting supernatants were analysed using hydrophilic interaction liquid chromatography (HILIC) with subsequent MS detection based on optimised MRM transitions. Matrix-matched calibration and quality control samples were prepared for quantification of OATD-02 and the reference ARGi. Due to the endogenous character of L-arginine, a surrogate matrix was used for its detection.
All statistical analyses were performed using GraphPad Prism (ver. 9, GraphPad Software, Inc., San Diego, CA, USA). Data sets with normal distribution were described as means with SEM (standard error of the mean). Otherwise, the median value was shown and the U Mann–Whitney or the Kruskal–Wallis tests were applied for intergroup comparisons. Differences at p-value less than 0.05 were considered statistically significant. TGI (tumour growth inhibition) index was calculated by the formula: (1 − A/B) × 100%, where A is the tumour volume in the treated group and B is the volume in the control group. […]

[1] = tested on: intracellular arginase in murine M2-polarized BMDMs; experiment: Cell-based arginase inhibition assay in murine M2-polarized bone marrow-derived macrophages (urea in supernatant); design: species or system mouse; conditions: 24 h incubation, 5 mM L-arginine, read-out: IC50, intracellular activity towards arginase-expressing immune cells
Experimental: The intracellular activity of OATD-02 arginase inhibitor was determined using murine M2-polarized macrophages. Bone marrow cells were collected from femur bones of C57BL/6 male mice. The cells suspended in DMEM medium (ThermoFisher, Waltham, MA, USA) supplemented with 5% FBS and 50 ng/mL M-CSF (PeproTech, Rocky Hill, NJ, USA) were poured through a 40 µm cell strainer and seeded into Petri dishes at 1 × 10^6 cells/mL for 2 days (37 °C, 5% CO2). Next, nonadherent cells were removed and fresh medium was added (DMEM, 5% FCS, 50 ng/mL M-CSF). The next day, the cells were dissociated using the CellStripper Dissociation Reagent (Corning, New York, NY, USA) and resuspended in the fresh DMEM medium containing 5% FCS, 50 ng/mL M-CSF, 20 ng/mL TGF-ß, and 30 ng/mL IL-4 (Biomibo, Warszawa, Poland). The cells were seeded into 96-well plates (64 × 10^3 cells/100 µL/well). […] Following 24 h incubation (37 °C, 5% CO2), the generated urea was detected by mixing 50 µL of the supernatant with 75 µL of the developing reagent (as described in the above section). Normalized absorbance values (515 nm) were fitted to a four-parameter equation using GraphPad Prism and IC50 values were determined. […] Normalized absorbance values (515 nm) were fitted to a four-parameter equation using GraphPad Prism and IC50 values were determined. […]

Row | oral bioavailability (plasma concentrations, compared between the two inhibitors) (CT26 tumours; CT26-bearing mice, 100 mg/kg PO BID, Figure 2B) | IC50 ([1]; Mus musculus, BMDM) [µM] | SMILES | final TGI (tumour growth inhibition) (CT26 tumours) [%] | fold change of endogenous plasma L-arginine (CT26 tumours; CT26-bearing mice, 100 mg/kg PO BID, 6 h after the last dosing) | fold change of L-arginine in tumour homogenates (CT26 tumours; CT26 tumours, 100 mg/kg PO BID, within the first 6 h post-dosing) | IC50 [1] [µM]
1 | higher oral bioavailability | 56.2 | C[C@H](N)C(=O)N1C[C@H](CCCB(O)O)[C@](N)(C(=O)O)C1 [ref. ARGi, numidargistat, reference compound] | 28 | – | – | –
2 | – | – | CN(C)C[C@@H]1CC[C@@H](CCB(O)O)C[C@]1(N)C(=O)O [OATD-02] | 48 | up to 6.7 fold | up to 6.9 fold | 1.1
